In publication PMC13192270, “RhlR quorum-sensing receptor ligand sensitivity regulates the differential expression of phenazine genes in Pseudomonas aeruginosa” (Journal of Bacteriology, 2026):

System: ΔrhlI strain expressing RhlR A44M
Test: RNA-seq gene expression
Assay type: cell-based, Pseudomonas aeruginosa
Design: opmD Expression value / mexI Expression value / mexH Expression value / mexG Expression value / lasB Expression value / rhlA Expression value / rhlB Expression value / rhlR Expression value / lecB Expression value / fhp Expression value / chiC Expression value / hcnA Expression value / mvfR Expression value / katB Expression value / norC Expression value / norB Expression value / katA Expression value: unit not given here
Conditions: 2 µM C4HSL
Method: To determine the effects of hypo- and hypersensitivity to C4HSL on RhlR-dependent transcription activation in P. aeruginosa, we performed RNA-seq on ΔrhlI strains expressing WT RhlR, RhlR T58L, and RhlR A44M in the presence of 2 µM C4HSL. We chose this approach to better control the levels of C4HSL across samples. All gene expression analyses were done relative to a ΔrhlI strain without exogenous supplementation of AHL. Thus, we examined the total increase in C4HSL-dependent gene regulation. We observed increased rhlA RNA levels in strains expressing WT RhlR and the RhlR T58L variant compared to ΔrhlI without C4HSL or a strain expressing the RhlR A44M variant (Table 2; Table S1). […] To corroborate our RNA-seq data, we built an rhlA promoter fusion to mScarlet and assayed reporter levels in the same genetic backgrounds as our transcriptomic experiment (Fig. S7D). Strains expressing hypersensitive RhlR variants produced similar levels of fluorescent signal relative to the WT strain, while a strain expressing a hyposensitive RhlR variant had diminished levels of fluorescent reporter (Fig. S7D).
A total of […] of overnight cultures was back diluted 1:100 in 20 mL of fresh LB media and incubated for 5 h at 37°C with shaking. Cells were harvested by centrifugation, and pellets were frozen until RNA extraction. RNA was extracted using the Invitrogen PureLink RNA Mini Kit. Pellets were resuspended in 100 µL lysozyme solution containing 10 mM Tris-HCl pH 8.0, 0.1 mM EDTA, and 1 mg/mL lysozyme. Five microliters of 1% SDS was added, and the solution was mixed with a vortex and incubated at room temperature for 5 min. A total of 350 µL lysis buffer (Invitrogen) was added with 10 µL 2-mercaptoethanol for each 1 mL of lysis buffer and vortexed. Cells were lysed by bead beating (BioSpec 0.1 MM Zirconia/Silica Beads) for two rounds of 50 s. Lysed cells were transferred to fresh microcentrifuge tubes with 250 µL of 100% ethanol and mixed with a vortex. Samples were spun in spin cartridges (Invitrogen) at 12,000 × g for 15 s at room temperature, and the flow-through was discarded. A total of 700 µL Wash Buffer I (Invitrogen) was added and spun at 12,000 × g for 15 s at room temperature, and the flow-through was discarded. A total of 500 µL Wash Buffer II (Invitrogen) with ethanol was added and centrifuged for 12,000 × g for 15 s at room temperature; the flow-through was discarded, and RNA samples were washed again. Cells were spun at 12,000 × g for 1 min at room temperature to dry the membrane with the bound RNA. A total of 50 µL RNAse-free water was added to the center of the spin cartridge, incubated at room temperature for 1 min, and centrifuged for 2 min at ≥12,000 × g at room temperature. Extracted RNA was then frozen at −80°C until further use.
Bulk RNA was sent to SeqCenter (Pittsburgh, PA) where it was processed for paired-end Illumina sequencing via rRNA depletion using Ribo-Zero Plus (Illumina). Fastq files generated by SeqCenter were processed using Rockhopper with default settings ([61][–][63]). Briefly, fastq files were aligned to the genome of Pseudomonas aeruginosa UCBPP-PA14. The reads were subsequently normalized using upper-quartile normalization, and transcript abundance was determined by reads per kilobase per million mapped reads. Differential gene expression analysis was conducted using a negative binomial distribution model, outputting a P-value for each transcript. The P-values were then corrected for false discovery using the Benjamini-Hochberg procedure, resulting in the q-values reported here (Table S2). SignalMap v2.0 (NimbleGen Systems) was used to visualize read counts for phzABCDEFG1/2, phzH, phzM, and phzS (Fig. 5). Aligned sequences generated in Rockhopper were converted to GFF files, and genes of interest were isolated into unique GFF files ([37]).

## CCCC(=O)N[C@H]1CCOC1=O [C4HSL, N-butyryl-L-homoserine lactone]
  chiC Expression value: 132,918.5
  fhp Expression value: 8,878
  hcnA Expression value: 38,430
  katA Expression value: 3,887,333
  katB Expression value: 13,211.5
  lasB Expression value: 6,614,384
  lecB Expression value: 208,420
  mexG Expression value: 4,729.5
  mexH Expression value: 11,247.5
  mexI Expression value: 15,683.5
  mvfR Expression value: 214,018
  norB Expression value: 28,591
  norC Expression value: 12,922.5
  opmD Expression value: 6,012
  phnA Expression value: 2,884,404
  phnB Expression value: 694,083
  phzA1 Expression value: 8,661
  phzA2 Expression value: 11,533
  phzB1 Expression value: 163,479
  phzB2 Expression value: 178,704.5
  phzC1 Expression value: 135,611.5
  phzC2 Expression value: 156,044
  phzD1 Expression value: 153,729
  phzD2 Expression value: 137,242.5
  phzE1 Expression value: 282,659.5
  phzE2 Expression value: 202,642.5
  phzF1 Expression value: 137,969
  phzF2 Expression value: 139,410.5
  phzG1 Expression value: 118,586
  phzG2 Expression value: 88,845
  phzM Expression value: 93,038
  phzS Expression value: 303,377
  pqsA Expression value: 3,743,059.5
  pqsB Expression value: 5,794,985
  pqsC Expression value: 5,614,134
  pqsD Expression value: 6,055,112.5
  pqsE Expression value: 3,188,208
  rhlA Expression value: 200,100.5
  rhlB Expression value: 165,369.5
  rhlR Expression value: 581,659
Vs ΔrhlI without AHL
  chiC Log2fold change: −0.05904
  fhp Log2fold change: 0.2001
  hcnA Log2fold change: 0.2595
  katA Log2fold change: 0.3253
  katB Log2fold change: 0.1017
  lasB Log2fold change: 1.048
  lecB Log2fold change: −0.7762
  mexG Log2fold change: 0.2215
  mexH Log2fold change: 0.2256
  mexI Log2fold change: −0.1584
  mvfR Log2fold change: −0.1373
  norB Log2fold change: −0.5108
  norC Log2fold change: −0.6332
  opmD Log2fold change: −0.2426
  phnA Log2fold change: 0.3171
  phnB Log2fold change: 0.2753
  phzA1 Log2fold change: −1.792
  phzA2 Log2fold change: 0.1326
  phzB1 Log2fold change: −1.046
  phzB2 Log2fold change: −0.2412
  phzC1 Log2fold change: −0.6965
  phzC2 Log2fold change: −0.2301
  phzD1 Log2fold change: −0.5047
  phzD2 Log2fold change: −0.458
  phzE1 Log2fold change: −0.5209
  phzE2 Log2fold change: −0.574
  phzF1 Log2fold change: −0.731
  phzF2 Log2fold change: −0.7224
  phzG1 Log2fold change: −0.7812
  phzG2 Log2fold change: −0.325
  phzM Log2fold change: −1.898
  phzS Log2fold change: −1.303
  pqsA Log2fold change: 0.5012
  pqsB Log2fold change: 0.621
  pqsC Log2fold change: 0.5508
  pqsD Log2fold change: 0.4552
  pqsE Log2fold change: 0.3409
  rhlA Log2fold change: −0.336
  rhlB Log2fold change: 0.3232
  rhlR Log2fold change: −0.1335
